Reference: PMC5867665, “Targeting Multiple Effector Pathways in Pancreatic Ductal Adenocarcinoma with a G-Quadruplex-Binding Small Molecule” (Journal of Medicinal Chemistry, 2018)

Columns and labels:
[1] = Maximum tolerated dose (MTD) study; type: in vivo; conditions: dose-escalation MTD study, IV, CD-1 nude mice
Experimental: To determine if the in vitro activity of CM03 was paralleled in vivo, we explored the activity of CM03 in a mouse xenograft model of PDAC. We have previously reported that the maximum tolerated dosage (MTD) for intravenous (IV) administration of MM41 is 25 mg/kg.[33] CM03 was well tolerated, up to a dosage of 45–50 mg/kg, as judged by a dose-escalation MTD study. A therapeutic schedule of two CM03 intravenous (IV) doses was explored using a subcutaneous MIA PaCa-2 pancreatic tumor xenograft model derived from the human cell line used in the cell growth inhibition studies. A group size of eight CD-1 nude mice was used, and dosing was conducted at 10 and 15 mg/kg, each twice weekly, over a period of 4 weeks (28 days: 8 doses). Two further groups were given either MM41 or gemcitabine at 15 mg/kg and received the same dose regimen. […] IVIS imaging of treated mice was performed by taking account of the intrinsic fluorescence of CM03. […] Thus, in contrast to MM41 and gemcitabine, the higher-dose CM03 treatment results in a statistically significant (p < 0.001) antitumor effect, which persisted long after dosing had ceased, up to the termination of the xenograft experiment (62 days).
The maximum tolerated dose (MTD) studies of MM41 and CM03 were performed in CD-1 nude mice. […] Mice were monitored visually for signs of adverse effects over periods of up to 72 h. […]

[2] = system: PANC-1 and MIA PaCa-2 cells; assay: RNA-seq gene expression, genes common to PANC-1 and MIA PaCa-2; type: cell-based, human
Excerpt: CM03 is a potent G4 ligand, as shown by the FRET and quantitative binding experiments reported here. We therefore reasoned that the potent CM03 antiproliferative activity on PDAC cells could be mediated through a G4-targeting mechanism. To test this hypothesis, we determined whether transcriptome changes upon early CM03 treatment were correlated with G4 presence in promoters and/or gene bodies. […] The time and dose of CM03 treatment were selected to reveal initial but robust mRNA changes while minimizing chronic effects due to cell toxicity. In both cell lines, the number of genes with altered expression (as defined by >0.5 increase in Log 2 of fold change [Log2 FC], or < −0.5 decrease; false discovery rate [FDR] < 0.1) increased with duration of CM03 treatment. In PANC-1 cells 2165 genes at 6 h and 3977 genes at 24 h were seen to change, while in MIA PaCa-2 cells, 5306 genes changed at 6 h and 5477 genes at 24 h compared to untreated controls (Supporting Information, Table 1). […] To validate that the targeting of G4-containing genes is not a general feature of antiproliferative agents, we also examined the effects of the first-line therapeutic agent for PDAC, gemcitabine,[37] a potent antiproliferative DNA synthesis inhibitor whose mechanism of action is G4-independent and which remains a standard therapy option in advanced PDAC. Both cell lines were treated with a range of gemcitabine concentrations (Supporting Information, Figure 4, Table 4) for 6 or 24 h.
The PDAC cell lines PANC-1 (ATCC, catalogue no. CRL-1469) and MIA PaCa-2 (ATCC, catalogue no. CRL-142) were maintained in DMEM (ThermoFisher, catalogue no. 11965092) supplemented with 10% (v/v) heat inactivated FBS (ThermoFisher) in a humidified atmosphere containing 5% CO2 at 37 °C. Cell lines were confirmed mycoplasma free by RNA-capture ELISA, and their genotypes were certified by STR profiling.
PANC-1 (0.35 × 10^6 cells/well) and MIA PaCa-2 (1.5 × 10^6 cells/well) cell lines were seeded overnight in 60 mm plates. Next day, cells were treated with 400 nM CM03 for 6 and 24 h. For gemcitabine treatment, cells were treated for 6 and 24 h with DMSO or 30 nM, 100 nM, 300 nM, 1 μM, 3 μM, and 10 μM gemcitabine-HCL for PANC-1 cells and 30 nM, 300 nM, and 3 μM gemcitabine-HCl for MIA PaCa-2 cells. Total RNA was extracted using the Qiagen RNeasy Plus Mini Kit (ThermoFisher, catalogue no. 74134) as per the manufacturer’s instructions. RNA quality (RIN > 9.0) was checked with an Aligent 2100 bioanalyzer RNA 6000 Nano Chip, and RNA concentration was quantified using a Qubit fluorometer (ThermoFisher) and Qubit RNA HS Assay Kit (Qiagen, catalogue no. Q32852). RNA-seq libraries were then generated using the Illumina Truseq RNA HT (stranded mRNA) kit (Illumina, catalogue no. RS-122–2103) as per the manufacturer’s instructions and sequenced using an Illumina HiSeq4000.
Fastq raw sequencing files were preprocessed using cutadapt[81] to remove sequencing adapters and low quality sequencing tails (options −q 10) and then aligned to the human genome (GRCh37/hg19) using tophat2[82] and using the UCSC gtf file provided by Illumina iGenomes as an annotation file (http://support.illumina.com/sequencing/sequencing_software/igenome.html). Gene counts were calculated using htseq-count[83] and the same gtf file. Differential expression analysis was done using the R package edgeR.[84] Differentially expressed genes were estimated independently for both cell lines (MIA PaCa-2 and PANC-1) and for the different time points (6 and 24 h) and were then intersected to inspect the common genes. The sequencing data is available at the GEO public functional genomics data repository (https://www.ncbi.nlm.nih.gov/geo/) as GSE105083. Details of the putative G4 sequence (PQs) analysis are given in the Supporting Information.

[3] = RNA-seq, 400 nM CM03, 6 h, both cell lines combined
[4] = RNA-seq, 400 nM CM03, 24 h, both cell lines combined

O=C1c2ccc3c4c(c(NCCN5CCCC5)cc(c24)C(=O)N1CCCN1CCOCC1)C(=O)N(CCCN1CCOCC1)C3=O [CM03, 2,7-bis(3-morpholinopropyl)-4-((2-(pyrrolidin-1-yl)ethyl)amino)benzo[lmn][3,8]phenanthroline-1,3,6,8(2H,7H)-tetraone]
well tolerated, up to a dosage of [1]: 45 to 50 mg/kg | genes changed in both cell lines ([2]; 400 nM CM03, 6 h): 1185 | genes changed in both cell lines ([2]; 400 nM CM03, 24 h): 1917 | KRAS mRNA expression ([2]; RNA-seq, 400 nM CM03, 6 and 24 h, either pancreatic cell line): unaffected | A1BG combined_logFC.6h.both [2, 3]: 0.1086 | A2LD1 combined_logFC.6h.both [2, 3]: -0.2585 | AAAS combined_logFC.6h.both [2, 3]: -0.007867 | AACS combined_logFC.6h.both [2, 3]: 0.04302 | A1BG combined_logFC.24h.both [2, 4]: -0.3316 | A2LD1 combined_logFC.24h.both [2, 4]: -0.03116 | A4GALT combined_logFC.24h.both [2, 4]: 0.4104 | AACS combined_logFC.24h.both [2, 4]: -0.1174
